According to patent US20110059956A1, “THERAPEUTIC AGENT FOR PAIN” (ZERIA PHARMACEUTICAL CO., LTD., priority 2008, published 2011):
Where a name gives a salt, the structure may show the parent alone. Read-outs that look alike come from different tables or passages of the source.

Columns and labels:
[1] = test system: nociceptive pain triggered by formalin; conditions: cited from earlier work; for analgesic effect, sole use: Non-Patent Document 11
[2] = test system: nociceptive pain caused by thermal stimulation; conditions: cited from earlier work; for generation of morphine resistance: mouse, thermal stimulation, Non-Patent Documents 5 and 6
[3] = test system: nociceptive pain caused by thermal stimulation; conditions: Non-Patent Document 7, cited from earlier work
neuropathic pain = conditions: cited from earlier work
[4] = test system: allodynia in B16-BL6 melanoma cancer pain model; assay: cancer pain model (B16-BL6 melanoma), von Frey pain threshold, repeated administration; type: in vivo, mouse; conditions: 100 mg/kg orally once a day for eight days from day 7 after cancer transplantation; FIG. 2
Experimental: From day 7 after cancer transplantation, compound (A1) or L-365,260 (CCK2 receptor antagonist) (100 mg/kg) was orally administered once a day for eight days repeatedly, and the change in pain threshold was monitored. […] On day 7 after cancer transplantation, allodynia occurred, and a considerable drop in pain threshold occurred on day 14 after cancer transplantation.

[5] = test system: allodynia in B16-BL6 melanoma cancer pain model; assay: cancer pain model (B16-BL6 melanoma transplanted into paw), von Frey pain threshold, single administration; type: in vivo, mouse; conditions: peroral single administration 100 mg/kg on day 14 after cancer transplantation; FIG. 1
Excerpt: Then, the change in pain threshold was monitored. Compound (A1) was suspended in 0.5% CMC-Na solution before administration.

thermal hyperalgesia = conditions: Non-Patent Document 12; cited from earlier work
pancreatic cancer = conditions: Non-Patent Document 15, cited from earlier work
cancer pain = conditions: clinical, combination with morphine; Non-Patent Document 10; cited from earlier work

C[C@](Cc1c[nH]c2ccccc12)(NC(=O)OC1[C@H]2C[C@@H]3C[C@@H](C[C@H]1C3)C2)C(=O)NC[C@H](NC(=O)CCC(=O)O)c1ccccc1 (stereo partly drawn) [CI-988]
analgesic effect of morphine on nociceptive pain ([1]; combination with morphine, Non-Patent Document 8): potentiates the analgesic effect of morphine | generation of morphine resistance [2]: suppress generation of morphine resistance

Cc1cccc(NC(=O)N[C@@H]2N=C(c3ccccc3)c3ccccc3N(C)C2=O)c1 [L-365,260]
analgesic effect of morphine on nociceptive pain ([3]; combination with morphine): potentiates the analgesic effect of morphine | analgesic effect, single use ([3]; single use): exhibits no analgesic effect | analgesic effect of morphine on allodynia (neuropathic pain; combination with morphine, Non-Patent Document 9): potentiates the analgesic effect of morphine | generation of morphine resistance (neuropathic pain; rat neuropathic pain model, Non-Patent Document 4): suppress generation of morphine resistance | analgesic effect, single use (neuropathic pain; single use, Non-Patent Document 9): exhibits no analgesic effect | change in pain threshold / improvement of allodynia [4]: no effect on improvement of allodynia was observed | analgesic effect, sole use [1]: exhibits the analgesic effect | generation of morphine resistance [2]: suppress generation of morphine resistance | analgesic effect, single use ([2]; single use, Non-Patent Document 13): exhibits no analgesic effect | change in pain threshold / improvement of allodynia [5]: no effect on improvement of allodynia

Cc1cccc(NC(=O)N[C@@H]2N=C(c3ccccc3)c3ccccc3N(CC(=O)c3ccccc3C)C2=O)c1 [YM022]
analgesic effect, sole use, on thermal hyperalgesia (thermal hyperalgesia): an analgesic effect

Nc1ccn([C@@H]2O[C@H](CO)[C@@H](O)C2(F)F)c(=O)n1 [gemcitabine hydrochloride]
pain relief effect (pancreatic cancer; pancreatic cancer patients): excellent pain relief effect | tumor regression effect (pancreatic cancer; pancreatic cancer): comparatively weak tumor regression effect

CCCN(CCC)C(=O)C(CCC(=O)O)NC(=O)c1ccccc1 (stereo not drawn) [proglumide]
analgesic effect, sole use [1]: exhibits the analgesic effect | analgesic effect of morphine on cancer pain (cancer pain): potentiates the analgesic effect of morphine | change in pain threshold / improvement of allodynia [5]: no effect on improvement of allodynia
